One series has as its system HCC827. The series can be described thus: MTS cell viability (cytotoxicity) assay, 2D cell culture. It counts as cell-based. Particulars: Homo sapiens; HCC827, 2D cell culture, 72 h, MTS; ±SD, N = 2; read-out: IC50 antitumor activity HCC827 2D. The method, then:
(§1) Compounds are diluted 1:3. 500 nL (for 2 D cell culture) or 400 nL (for 3 D cell culture) of compound were transferred from mother plate to test plate by using Mosquito (TTP labtech). DMSO percentage in test concentrations was 0.5 − 1.0%. Starting concentration of the test compounds and standard compound doxorubicin was 50 µM (2 D cell culture) or 100 µM (3 D cell culture).
(§2) Cells were grown in 96 well cell star polystyrene plates. 10,000 cells/well were seeded in wells 4 h prior the treatment with different compounds concentrations and incubated for 72 h. A cell viability assay was performed according to the manufacturer’s instruction, using CellTiter 96 aqueous solution, MTS kit (Promega, Madison, WI, USA). After 0.5–2 h of cell incubation with MTS in 2 D cell culture, the plates were read using PE EnVision absorbance at 490 nm. […] Since we prefer homogeneous assays (mix and read procedures) and therefore MTS is more practical (one step less than MTT). MTS is more sensitive and accurate in comparison with MTT assay.
(§3) Calculation of IC50 data, curves and QC analysis is made by using Excel tools and GraphPadPrism software (La Jolla, CA), v. […] QC criteria parameters (Z', S:B, R2, HillSlope) were checked for every IC50 curve.

The next series relates to NCI-H358. The series is described as above. It counts as cell-based. To be noted: Homo sapiens; NCI-H358, 2D cell culture, 72 h, MTS; ±SD, N = 2; read-out: IC50 antitumor activity NCI-H358 2D. The method, then: as §1, §2, §3
In a further series the test system is A549. Description: BrdU proliferation assay, 2D cell culture. It counts as cell-based. To be noted: Homo sapiens, A549, 2D cell culture, ±SD, N = 2. How it is done: Cells were grown in 96 well cell star polystyrene plates. 10,000 cells/well were seeded in wells 4 h prior the treatment with different compounds concentrations and incubated for 72 h. A cell viability assay was performed according to the manufacturer’s instruction, using CellTiter 96 aqueous solution, MTS kit (Promega, Madison, WI, USA). After 0.5–2 h of cell incubation with MTS in 2 D cell culture, the plates were read using PE EnVision absorbance at 490 nm. The results for each of tested compounds are reported as growth percentages from two independent concentrations curves compared with the untreated control cells after drug exposure. Since we prefer homogeneous assays (mix and read procedures) and therefore MTS is more practical (one step less than MTT). MTS is more sensitive and accurate in comparison with MTT assay.
Proliferation assay was performed using Cell Proliferation ELISA, BrdU (Sigma, St. Louis, MO, USA). Briefly, 48 h hours after compound addition, 10 µM of BrdU was added to each well and incubated for following 24 h. After incubation, single cell suspension was made for 3 D cell culture in the new 96 well plate. Plates were centrifuged and supernatants were removed from each plate (for 2 D and 3 D cell culture) followed by 60 min incubation at 60° C. The rest of the proliferation assay was performed according to the manufacturer instructions.
Calculation of IC50 data, curves and QC analysis is made by using Excel tools and GraphPadPrism software (La Jolla, CA), v. 5.03. In brief, individual concentration–effect curves are generated by plotting the logarithm of the tested concentration of tested compounds (X) versus corresponding percent inhibition values (Y) using least squares (ordinary) fit. […] QC criteria parameters (Z', S:B, R2, HillSlope) were checked for every IC50 curve.

Series [1] has as its system P-glycoprotein (human MDR1). Description: MDCKII-MDR1 permeability and P-glycoprotein substrate assay. The series is classed as in vitro ADME, canine cells over-expressing human MDR1. Particulars: dog; for efflux ratio at 60 min, 10 µM: MDCK-MDR1, pH 7.4, without P-gp inhibitor; for Papp A→B at 60 min, 10 µM / Papp B→A at 60 min, 10 µM: MDCK-MDR1, pH 7.4, without P-gp inhibitor; for Papp A→B at 60 min, 10 µM: read-out: MDCKII-MDR1 Papp(A2B); for Papp B→A at 60 min, 10 µM: read-out: MDCKII-MDR1 Papp(B2A). How it is done: Permeability and P-glycoprotein substrate assessment was done on MDCKII-hMDR1, Madin-Darby canine epithelial cells over-expressing human MDR1 gene, coding for P-glycoprotein.
Cells were prepared for transport studies by seeding on 96-well cell culture inserts (Millipore, MA, USA) in a concentration of 0.25 × 10^6 cells per ml. The cells were fed with fresh medium 24 h post seeding and cultured to confluence for 3 days before use. On the day of experiment, the cell monolayers were washed and equilibrated with transport medium (DPBS, pH 7.4 containing 1% DMSO) with or without P-gp specific inhibitor, elacridar (2 µM) for 45 min (37 °C, 5% CO2, 95% humidity). Test compound solution consisted of test substance (10 μM) in D-PBS medium containing lucifer yellow (100 μM) and 1% DMSO. Transport assays were conducted in apical to basolateral (A2B) and basolateral to apical (B2A) directions, respectively. Monolayers were incubated with the compound solution for 60 min at 37 °C under gentle agitation. Apical and basolateral compartments were sampled at the end of the transport experiment, while donor solutions were also sampled at the beginning of the experiment in order to determine initial concentration. Test substance concentrations in both compartments were determined by LC-MS/MS. There were several controls used in the assay: 1) amprenavir (0.5 μM) served as a low permeable control, being also a P-gp substrate; 2) diclofenac (10 μM) was used as a high permeable control; 3) Lucifer yellow, a fluorescent marker for the paracellular membrane transport, was used as a control of cell monolayer integrity.
All ADME samples were analysed on a Sciex API 4000 or Sciex API4500 Triple Quadrupole Mass Spectrometer (Sciex, Framingham, MA, USA) coupled to a UHPLC System (Shimadzu Nexera X2; Shimadzu, Kyoto, Japan). Samples were injected onto an UPLC column (HALO2 C18, 2.1 × 20 mm, 2 µm or Phenomenex Luna Omega Polar C18, 30 × 2.1 mm, 1.6 µm) and eluted with a gradient at temperature of 50 °C. The mobile phase was composed of acetonitrile (with 0.1% formic acid) and 0.1% formic acid in deionised water. A total run time was 1 or 1.5 min, with the flow rate of 0.7 ml/min (under gradient conditions). A positive ion mode with turbo spray, an ion source temperature of 500 °C and a dwell time of 150 ms were utilised for mass spectrometric detection. Multiple reaction monitoring (MRM) was used at the specific transitions for each compound/control tested: compound 5c: 361.9 → 304.9; compound 5d: 344.8 → 287.9; compound 5e: 349.8 → 292.9; compound 5 g: 350.8 → 293.9; compound 5 h: 344.0 → 286.9; compound 6a: 276.9 → 220.0; compound 5 b: 319.0 → 262.0; compound 6 b: 302.1 → 245.1; compound 6c: 344.9 → 288.0; compound 6d: 333.0 → 276.0; compound 6e: 316.1 → 259.0; compound 6f: 327.1 → 270.0; compound 6 g: 377.1 → 320.1; testosterone: 289.3→ 97.1; propranolol: 260.1 → 182.8; caffeine: 195.2 → 138.1; acebutolol: 337.2 → 116.2, nicardipine: 480.2 → 315.0; verapamil: 455.4 → 165.1; amprenavir: 506.2 → 245.4; diclofenac: 296.1 → 213.7 or 296.2 → 215.3; eucatropine: 292.2 → 109.1; benfluorex: 352.1 → 230.3, and warfarin: 309.2 → 163.2

By IC50 is commonly meant the concentration that inhibits the measured activity by half. For orientation: efflux ratio means a quotient of directional permeabilities that is used to spot active efflux.

Molecules are shown by their SMILES.

`Cl.FC(F)(F)c1ccc(-c2nc3ccc(C4=NCCCN4)cc3s2)cc1` [Compound 5c, 2–(4-Trifluoromethylphenyl)-6–(3,4,5,6-tetrahydropyrimidin-1-ium-2-yl)benzothiazole chloride]: the IC50 in the series with HCC827 turned out to be 7 ± 0.45 µM; with NCI-H358, 23 ± 0.79 µM; in the series with A549, 48 ± 0.73 µM. In series [1], the efflux ratio at 60 min, 10 µM was > 200. Moreover, the Papp A→B at 60 min, 10 µM in series [1] was < 0.1 ×10⁻⁶ cm/s. Further, in series [1], the Papp B→A at 60 min, 10 µM is 21.5 ×10⁻⁶ cm/s.

For `Cl.N#Cc1ccc(-c2nc3ccc(C4=NCCCN4)cc3s2)cc1` [Compound 5b, 2–(4-Cyanophenyl)-6–(3,4,5,6-tetrahydropyrimidin-1-ium-2-yl)benzothiazole chloride], in the series on HCC827, the IC50 is > 50 µM. Also, in the series with NCI-H358, the IC50 was > 50 µM. In the series with A549, the IC50 is > 50 µM. Moreover, in series [1], the efflux ratio at 60 min, 10 µM came to 35.4; the Papp A→B at 60 min, 10 µM is 0.59 ×10⁻⁶ cm/s; the Papp B→A at 60 min, 10 µM is 20.5 ×10⁻⁶ cm/s.

The record behind these values is PMC7801115, “Preclinical in vitro screening of newly synthesised amidino substituted benzimidazoles and benzothiazoles” (Journal of Enzyme Inhibition and Medicinal Chemistry, 2021).
